Reference: patent US20100285038A1, “Factor Involved in Metastasis and Uses Thereof” (priority 2002, published 2010)
d = 2'-deoxy (DNA); m = 2'-O-methyl

Tests used:
Format in all cases: cell-based, human
PRF1 protein = experiment: Western blot analysis of PRF1 protein expression in PC-3 cells
Protocol: A polyclonal antibody was generated against PRF1 using standard techniques. The polyclonal antibody thus obtained was tested for its specificity for PRF1. For that purpose, cell lysates from PC-3 cells treated with PRF1 specific antisense molecules, more particularly gene blocks, or mismatches thereof and cells transfected with expression plasmides for recombinant HA-tagged PRF1 were prepared. The lysates were analysed by Western blot analysis using the polyclonal antibody and the results are depicted in FIG. 8 A.
(§1) To investigate whether PI 3-kinase activity has an impact on PRF1 protein expression, PC-3 cells were treated either with LY294002 or with DMSO as control. Analysis was performed by Western Blot analysis using the polyclonal antibody as detection means for PRF1 protein. Apart from PRF1 protein, also expression of Akt and phosphorylated Akt (P*Akt) was monitored using respective specific antibodies. Additionally, the expression of p110α and p85 was monitored.
To investigate whether the expression of PRF1 at the protein level would also be dependent on Akt (PKB) activity and HIF1α activity PC-3 cells were treated with Akt specific antisense molecules. More particularly, two antisense molecules, designated Akt1-GB and Akt2-molecule were used with the readout being the same as discussed in connection with FIG. 9, whereby, additionally, the HIF1α protein expression was monitored using a commercially available protein G-purified polyclonal antibody (R&DSystems, Lot Number: IUGO13071).
The same experiment using the same markers for monitoring except Akt and P*-Akt was carried out with cells grown under hypoxic conditions which was realized by treating the cells with CoCl2. Two different forms of antisense molecules, namely HIF1α-GB66 and HIF1α-GB67 were used and respective mismatches used as controls.
A lane of the Blot represents the cell lysate of the cells shown in the corresponding photograph. As a read-out, p110 alpha and p85 are shown as loading control and the component of the PI-3K pathway investigated, i.e. AKT, monitored as P*AKT, HIF1 alpha and PRF1.

[1] = system: Akt and phosphorylated Akt (P*Akt); experiment: Western blot analysis of Akt and phosphorylated Akt in PC-3 cells; conditions: DMSO as control (FIG. 9A)
Protocol: as §1

[2] = system: PRF1 (NM—019058) specific mRNA; experiment: PRF1 mRNA knock-down by real time RT-PCR (Taqman) in transfected PC-3 cells; conditions: PC-3 cells seeded on matrigel; standardized to internal p110α mRNA levels; DCt method
Protocol: Transfections were carried out in 96 well or 10-cm plates (at 30% to 50% confluency) by using various cationic lipids such as Oligofectamine, Lipofectamine (Life Technologies), NC388 (Ribozyme Pharmaceuticals, Inc., Boulder, Colo.), or FuGene 6 (Roche) according to the manufacturer's instructions. GeneBlocs were transfected by adding pre-formed 5× concentrated complex of GeneBloc and lipid in serum-free medium to cells in complete medium. The total transfection volume was 100 μl for cells plated in 96 wells and 10 ml for cells in 10 cm plates. The final lipid concentration was 0.8 to 1.2 μg/ml depending on cell density; the GeneBloc concentration is indicated in each experiment.
The RNA of cells transfected in 96-wells was isolated and purified using the Invisorb RNA HTS 96 kit (InVitek GmbH, Berlin). Inhibition of PRF1 mRNA expression was detected by real time RT-PCR (Taqman) analysis using 300 nM PRF1 5′ primer, 300 nM PRF1 3′ primer and 100 nM of the PRF1 Taqman probe Fam-Tamra labelled. […]
PC3 cells were transfected and seeded on matrigel as described and growth was monitored. mRNA was isolated from an aliquot of the cells seeded on matrigel and analysed using Taqman assay (left panel). […]

PC-3 cells = experiment: In vitro growth on Matrigel matrix; conditions: PC-3 cells transfected with GeneBloc; versus corresponding mismatched oligonucleotides
Protocol: PC3 cells were treated with 10 μM LY294002 or DMSO when seeded on Matrigel. If cells were transfected previous to seeding cells were transfected with GeneBloc and trypsinized 48 h post transfection. The cells were washed in medium and seeded into duplicate 24-wells (100.000 cells per well) pre-coated with 250 μl matrigel basement membrane matrix (Becton Dickinson). After incubation for 24 to 72 h photographs were taken at 5× magnification with an Axiocam camera attached to an Axiovert 5100 microscope (Zeiss).
A more confluent growth of the cells is taken as an indication that their metastasis and migration behavior is increased which allows the cells to spread over the three-dimensional structure provided by the matrigel. The result of this example is depicted in FIG. 5.
PC3 cells were transfected and seeded on matrigel as described and growth was monitored. mRNA was isolated from an aliquot of the cells seeded on matrigel and analysed using Taqman assay (left panel). PRF1 (NM_019058) specific mRNA was standardized to internal p110α mRNA levels. A PTEN specific GeneBloc is used as a negative control in the PTEN^−/− PC-3 cells and a p110β specific GeneBloc is used as a positive control for growth in extracellular matrix. […]

[3] = system: PI 3-kinase (p110α and p85); experiment: Western blot analysis of PI 3-kinase (p110α and p85) expression in PC-3 cells; conditions: lysates of PC-3 cells treated with PRF1 specific GeneBloc (FIG. 8A)

Molecule | PRF1 protein expression (PRF1 protein; PC-3 cells, after 72 and 96 h, DMSO as control (FIG. 9A)) | Akt and phosphorylated Akt [1] | knockdown of the mRNA of PRF1 [2] | growth on matrigel (PC-3 cells) | expressed PRF1 protein (PRF1 protein; lysates of PC-3 cells treated with PRF1 specific GeneBlocs or mismatches, polyclonal antibody (FIG. 8A)) | PI 3-kinase expression (p110α and p85 specific antibodies) [3]
O=c1cc(N2CCOCC2)oc2c(-c3ccccc3)cccc12 [LY294002, 2-(4-morpholinyl)-8-phenylchromone] | down regulated | down regulated | – | – | – | –
GeneBloc 70043: third generation antisense oligonucleotide directed to PRF1 mRNA, SEQ ID NO. 7 (antisense CCCAAAAGTTCAGTCGUCUCU; sugars from the 5' end m6 d9 m6, backbone and methylation of C not given here; DNA gap phosphorothioate-linked, flank linkages not clearly stated, further chemistry not fully specified) | – | – | significant knockdown | Specific growth inhibition | clear reduction | still being extensively expressed
